This note sets out measurements from PubChem BioAssay (NCI).

Several values for one entry are separate records, joined by “and”; a condition that tells them apart may be missing. Identical values can stand only once.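 Each compound was tested at five concentrations against cells in 96-well plates for 48 hours. Abbreviation: GI50, concentration required for 50% inhibition of growth. At the TGI there is no net growth.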 Where only a bound is given, the exact number is not on record here.

The first assay concerns SF-539 CNS. The assay is described as follows: growth of human tumour cells (NCI), 48 h.
Take `CCOC(=O)CNC(=O)c1ccccc1Nc1ccnc(C(F)(F)F)c1`: the GI50 is 28 µM and the TGI was greater than 100 µM.

`C[C@@]12CCCc3coc(c31)C(=O)c1cc3c(cc12)C(=O)C=CC3=O`: the GI50 is less than 1 µM; the TGI was > 1 µM and 30.1 µM.

For the compound `C=CCNC(=O)N(CCC)CCCCC(NC(C)=O)C(=O)NCc1ccccc1` (configuration not stated), the TGI was greater than 100 µM.

Compound `Nc1ccn(C2(CO)C=C(CO)C(O)C2O)c(=O)n1` (configuration not stated) came in with a TGI greater than 25.8 µM.

`C=C1C[C@]23CCC4C(C)(C)C(=O)CC[C@]4(C)C2C[C@H]1C(O)C3=O` (some centres not stated) had a TGI greater than 75 µM.

For the compound `COc1cccc(/C(COc2ccc3c(c2)oc(=O)c2cc(OC)ccc23)=N/O)c1`, the GI50 was 6.55 µM and the TGI came to 81.5 µM.

Turning to `COc1cc2c(c(OC)n1)[C@]1(O)[C@H](O)[C@H](CN(C)C)[C@@H](c3ccccc3)[C@]1(c1ccc(C#N)cc1)O2`, the GI50 is 0.0142 µM and < 0.0116 µM; the TGI was 0.0963 µM and 0.122 µM.

`C=CCSS/C=C/CS(=O)CC=C` (configuration not stated) registered a TGI of 51.6 µM.

For `Oc1cn(-c2ccc(Cl)cc2)nc1-c1n[nH]c(=S)n1C1CCCCC1`, the GI50 was 0.312 µM and the TGI is 1.11 µM.

A further assay has as its system M14 melanoma. Put plainly: growth of human tumour cells (NCI), 48 h.
In turn, `CC1=NN(C(=O)CC(=O)N(C(=O)c2ccccc2Cl)c2ccc(C)cc2)C(=O)C1N=Nc1ccc([N+](=O)[O-])cc1` (configuration not stated) returned a TGI greater than 100 µM.

In the case of `CCn1c(CO)nn(-c2cc(O[C@@H](C)C(F)(F)F)c(C(=O)Nc3c(F)cccc3Cl)cc2F)c1=O`, the GI50 was less than 0.0144 µM and the TGI is greater than 100 µM.

In the case of `CC1CCC(=O)C(C(=O)CC2CC(=O)NC(=O)C2)C1` (configuration not stated), the TGI is greater than 100 µM.

Compound `COc1cccc(-n2c3nc(=O)n(C)c(=O)c-3nc3ccccc32)c1` had a TGI of 27.7 µM.

Regarding `CC(C)(C=O)CC(C#N)/C(=N\NC(N)=O)C(=O)Nc1ccccc1C(N)=O` (configuration not stated), the TGI was greater than 100 µM.

With `Cc1cc(C)c(C2[C@H]3C(=O)N(c4ccc(Cc5ccc(N6C(=O)[C@@H]7ON(c8ccccc8)C(c8c(C)cc(C)cc8C)[C@@H]7C6=O)cc5)cc4)C(=O)[C@H]3ON2c2ccccc2)c(C)c1` (some centres not stated), the TGI was greater than 100 µM.

As for `COc1ccc2c(c1)C(C)Cc1c(ncnc1-n1c(C)nc3ccccc31)N2C` (configuration not stated), the GI50 is 2.62 µM and the TGI turned out to be 15.4 µM.

Regarding `Cc1cc(C2CC(O)C(CO)O2)cc2c(=O)[nH]c(N)nc12` (configuration not stated), the GI50 was greater than 100 µM and the TGI was greater than 100 µM.

As for `COc1ccc2[nH]c3c4c(ccc3c2c1)C(=O)C=CC4=O`, the TGI was found to be 35.2 µM.

Consider `CC12CCCCC1(C)C2Sc1ccccc1` (configuration not stated), for which the TGI is greater than 100 µM.

With `CCOC(=O)CNC(=O)c1ccccc1Nc1ccnc(C(F)(F)F)c1`, the GI50 was 38.1 µM and the TGI is greater than 74.9 µM.

For the compound `C[C@@]12CCCc3coc(c31)C(=O)c1cc3c(cc12)C(=O)C=CC3=O`, the GI50 was greater than 1 µM; the TGI was > 1 µM and 29.7 µM.

In turn, `C=CCNC(=O)N(CCC)CCCCC(NC(C)=O)C(=O)NCc1ccccc1` (configuration not stated) came in with a TGI greater than 100 µM.

`Nc1ccn(C2(CO)C=C(CO)C(O)C2O)c(=O)n1` (configuration not stated) returned a TGI greater than 25.8 µM.

As to `C=C1C[C@]23CCC4C(C)(C)C(=O)CC[C@]4(C)C2C[C@H]1C(O)C3=O` (some centres not stated), the TGI was greater than 75 µM.

On to `COc1cccc(/C(COc2ccc3c(c2)oc(=O)c2cc(OC)ccc23)=N/O)c1`, for which the GI50 was 3.62 µM and the TGI was greater than 100 µM.

`COc1cc2c(c(OC)n1)[C@]1(O)[C@H](O)[C@H](CN(C)C)[C@@H](c3ccccc3)[C@]1(c1ccc(C#N)cc1)O2`: the GI50 was 0.0147 µM and 0.0102 µM; the TGI was 0.193 µM and 0.114 µM.

Take `C=CCSS/C=C/CS(=O)CC=C` (configuration not stated): the TGI came out at 44.1 µM.

For the compound `Oc1cn(-c2ccc(Cl)cc2)nc1-c1n[nH]c(=S)n1C1CCCCC1`, the GI50 was 0.682 µM and the TGI was determined as 38.7 µM.

The next assay concerns UACC-257 melanoma. The assay is described as follows: growth of human tumour cells (NCI), 48 h.
The compound `CC1=NN(C(=O)CC(=O)N(C(=O)c2ccccc2Cl)c2ccc(C)cc2)C(=O)C1N=Nc1ccc([N+](=O)[O-])cc1` (configuration not stated) displayed a TGI greater than 100 µM.

The compound `CCn1c(CO)nn(-c2cc(O[C@@H](C)C(F)(F)F)c(C(=O)Nc3c(F)cccc3Cl)cc2F)c1=O` gave a TGI greater than 100 µM.

The compound `CC1CCC(=O)C(C(=O)CC2CC(=O)NC(=O)C2)C1` (configuration not stated) registered a TGI greater than 100 µM.

Turning to `COc1cccc(-n2c3nc(=O)n(C)c(=O)c-3nc3ccccc32)c1`, the TGI stood at 33.8 µM.

`CC(C)(C=O)CC(C#N)/C(=N\NC(N)=O)C(=O)Nc1ccccc1C(N)=O` (configuration not stated) yielded a TGI greater than 100 µM.

For `Cc1cc(C)c(C2[C@H]3C(=O)N(c4ccc(Cc5ccc(N6C(=O)[C@@H]7ON(c8ccccc8)C(c8c(C)cc(C)cc8C)[C@@H]7C6=O)cc5)cc4)C(=O)[C@H]3ON2c2ccccc2)c(C)c1` (some centres not stated), the TGI was greater than 100 µM.

In the case of `COc1ccc2c(c1)C(C)Cc1c(ncnc1-n1c(C)nc3ccccc31)N2C` (configuration not stated), the GI50 was 14.8 µM and the TGI is 33.5 µM.

As for `Cc1cc(C2CC(O)C(CO)O2)cc2c(=O)[nH]c(N)nc12` (configuration not stated), the GI50 was greater than 100 µM and the TGI was greater than 100 µM.

`COc1ccc2[nH]c3c4c(ccc3c2c1)C(=O)C=CC4=O` had a TGI of 27.7 µM.

Take `CC12CCCCC1(C)C2Sc1ccccc1` (configuration not stated): the TGI was greater than 100 µM.

In the case of `CCOC(=O)CNC(=O)c1ccccc1Nc1ccnc(C(F)(F)F)c1`, the GI50 was 68.7 µM and the TGI was greater than 100 µM.

On to `C[C@@]12CCCc3coc(c31)C(=O)c1cc3c(cc12)C(=O)C=CC3=O`, for which the GI50 is greater than 1 µM; the TGI is > 1 µM and 29.9 µM.

With `C=CCNC(=O)N(CCC)CCCCC(NC(C)=O)C(=O)NCc1ccccc1` (configuration not stated), the TGI was greater than 100 µM.

Regarding `Nc1ccn(C2(CO)C=C(CO)C(O)C2O)c(=O)n1` (configuration not stated), the TGI was greater than 25.8 µM.

For `C=C1C[C@]23CCC4C(C)(C)C(=O)CC[C@]4(C)C2C[C@H]1C(O)C3=O` (some centres not stated), the TGI was greater than 75 µM.

On to `COc1cccc(/C(COc2ccc3c(c2)oc(=O)c2cc(OC)ccc23)=N/O)c1`, for which the GI50 was 34.8 µM and the TGI was greater than 100 µM.

With `COc1cc2c(c(OC)n1)[C@]1(O)[C@H](O)[C@H](CN(C)C)[C@@H](c3ccccc3)[C@]1(c1ccc(C#N)cc1)O2`, the GI50 is 0.0417 µM and 0.0427 µM; the TGI was 2.45 µM and 2.12 µM.

`C=CCSS/C=C/CS(=O)CC=C` (configuration not stated): the TGI was greater than 100 µM.

For `Oc1cn(-c2ccc(Cl)cc2)nc1-c1n[nH]c(=S)n1C1CCCCC1`, the GI50 is 0.873 µM and the TGI is greater than 100 µM.
